These results are taken from patent publication US20250368633A1, “AZEPINE FUSED RING COMPOUND AS RIPK1 INHIBITOR AND USE THEREOF” (ARTIVILA BIOPHARMA, priority 2022, published 2025).

Usually inhibition stands for how much of the control response was suppressed. The term EC50 denotes the concentration that produces a half-maximal response.

The target in assay [1] is T1, RIPK1 kinase (Homo sapiens, UniProt Q13546).
T1 construct: purchased Promega VA7593
T1 sequence (Q13546 1-671): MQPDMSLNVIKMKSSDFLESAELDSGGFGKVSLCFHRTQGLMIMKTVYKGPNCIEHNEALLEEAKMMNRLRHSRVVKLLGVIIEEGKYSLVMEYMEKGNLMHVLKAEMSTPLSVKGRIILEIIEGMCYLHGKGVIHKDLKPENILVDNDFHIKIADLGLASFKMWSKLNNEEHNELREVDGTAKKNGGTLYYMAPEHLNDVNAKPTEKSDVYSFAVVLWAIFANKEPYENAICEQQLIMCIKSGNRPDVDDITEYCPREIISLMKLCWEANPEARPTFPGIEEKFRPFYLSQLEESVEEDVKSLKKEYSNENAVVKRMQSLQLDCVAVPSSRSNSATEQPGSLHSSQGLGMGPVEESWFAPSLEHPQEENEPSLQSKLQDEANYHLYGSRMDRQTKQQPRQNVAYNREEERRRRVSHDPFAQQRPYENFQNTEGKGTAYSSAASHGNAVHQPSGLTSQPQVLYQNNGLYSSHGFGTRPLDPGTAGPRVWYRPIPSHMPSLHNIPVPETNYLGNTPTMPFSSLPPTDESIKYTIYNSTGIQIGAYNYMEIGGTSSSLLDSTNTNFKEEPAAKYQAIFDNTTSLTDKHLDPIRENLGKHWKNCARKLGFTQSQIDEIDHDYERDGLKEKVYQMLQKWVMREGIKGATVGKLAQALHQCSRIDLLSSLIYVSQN
The experiment in a line: In vitro RIPK1 kinase activity assay (ADP-Glo), inhibition by compounds at 1 μM. Format: biochemical. As to conditions: compound 1 μM; ATP 10 μM; MBP substrate 100 μg/mL; read-out: RIPK1 kinase activity inhibition rate range. The method, boiled down: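 Compound and RIPK1 were preincubated 15 min at room temperature, then reacted 1 h with 10 μM ATP and 100 μg/mL MBP substrate in kinase buffer D. ADP formed was measured by ADP-Glo luminescence and converted to percent inhibition of kinase activity.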
(ADP-Glo first removes unused ATP, then detects ADP through luciferase.)

Assay [2] deals with U937 cells. The experiment in a line: Inhibition rate of compound (1 μM) on necroptosis of U937 cells (TSZ-induced, CellTiter-Glo). The assay is classed as cell-based. Particulars: TSZ (hTNF-α, SM-164, Z-VAD-FMK) 20 hours. The essentials:
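U937 cells were pretreated 15 min with compound, then necroptosis was triggered with TSZ (Z-VAD-FMK, hTNF-α, SM-164) for 20 h at 37° C. Viability was read as ATP by CellTiter-Glo luminescence, and inhibition (%) was taken relative to no-TSZ and TSZ-only wells.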
(In ATP-based viability assays light output follows the ATP content of the culture.)

For assay [3], the system named is U937 cells. In words: EC50 of necroptosis inhibition in U937 cells (TSZ-induced, CellTiter-Glo). Format: cell-based. Particulars: Homo sapiens, U-937; TSZ (hTNF-α, SM-164, Z-VAD-FMK) 20 hours; 10 concentration points; read-out: EC50 intervals of necroptosis inhibition in U937 cells. The method, boiled down:
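U937 cells pretreated 15 min with compound (10-point, 1:3 series), then necroptosis induced by TSZ (hTNF-α, SM-164, Z-VAD-FMK) for 20 h at 37 °C. Viability measured as ATP by CellTiter-Glo luminescence; inhibition normalised to untreated and TSZ-only wells, EC50 from four-parameter fit.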

With `CN1C(=O)[C@@H](NC(=O)C(=O)NCc2ccccc2)COc2ccc(C#CCN3CCC(O)CC3)cc21` [Example 105, (S)—N^1-benzyl-N^2-(7-(3-(4-hydroxypiperidin-1-yl)prop-1-yn-1-yl)-5-methyl-4-oxo-2,3,4,5-tetrahydrobenzo[b][1,4]oxazepin-3-yl)oxalamide], the inhibition at 1 µM in assay [1] is not below 75%. Also, the “Inhibition rate range of compounds (1 μM) on U937 cell necroptosis” value (shortened to “Inhibition rate range of compounds”) in assay [2] is reported as “A (A: ≥90%)”. Also, in assay [3], the EC50 is less than 0.1 µM.
Take `Cc1ccccc1CNC(=O)C(=O)N[C@H]1COc2ccc(C#CCN3CCNC(=O)C3)cc2N(C)C1=O` [Example 108, (S)—N^1-(5-methyl-4-oxo-7-(3-(3-oxopiperazin-1-yl)prop-1-yn-1-yl)-2,3,4,5-tetrahydrobenzo[b][1, 4]oxazepin-3-yl)-N^2-(2-methylbenzyl)oxalamide]: the inhibition at 1 µM in assay [1] is not below 75%. In addition, the “Inhibition rate range of compounds” value in assay [2] was “A (A: ≥90%)”. Besides, in assay [3], the EC50 is less than 0.1 µM.
The corresponding values for `CN1C(=O)[C@@H](NC(=O)C(=O)NCCc2cccc(F)c2)COc2ccc(C#CC3CCCNC3)cc21` (stereo partly drawn) [Example 116, N^1-(3-fluorophenethyl)-N^2-((3S)-5-methyl-4-oxo-7-(piperidin-3-ylethynyl)-2,3,4,5-tetrahydrobenzo[b][1,4]oxazepin-3-yl)oxalamide] are 50 to 74%, “A (A: ≥90%)” and 0.1 to 0.5 µM.
With `CN1C(=O)[C@@H](NC(=O)C(=O)NCCc2cccc(F)c2)COc2ccc(C#CCN3CCC(=O)C3)cc21` [Example 119, (S)—N^1-(3-fluorophenethyl)-N^2-(5-methyl-4-oxo-7-(3-(3-oxopyrrolidin-1-yl)prop-1-yn-1-yl)-2,3,4,5-tetrahydrobenzo[b][1,4]oxazepin-3-yl)oxalamide], the inhibition at 1 µM in assay [1] was 25 to 49%. For the same compound, in assay [2], the “Inhibition rate range of compounds” value was “A (A: ≥90%)”. Further, in assay [3], the EC50 was less than 0.1 µM.
The corresponding values for `CN1C(=O)[C@@H](NC(=O)C(=O)NCCc2cccc(F)c2)COc2ccc(C#CCN3CCN(CCO)CC3)cc21` [Example 121, (S)—N^1-(3-fluorophenethyl)-N^2-(7-(3-(4-(2-hydroxyethyl)piperazin-1-yl)prop-1-yn-1-yl)-5-methyl-4-oxo-2,3,4,5-tetrahydrobenzo[b][1,4]oxazepin-3-yl)oxalamide] are not below 75%, “B (B: 50-89%)” and less than 0.1 µM.
The corresponding values for `C[C@H](NC(=O)C(=O)N[C@H]1COc2ccc(C#CCCO)cc2N(C)C1=O)c1ccccc1` [Example 124, N^1-((S)-7-(4-hydroxybut-1-yn-1-yl)-5-methyl-4-oxo-2,3,4,5-tetrahydrobenzo[b][1,4]oxazepin-3-yl)-N^2-((S)-1-phenylethyl)oxalamide] are 50 to 74%, “A (A: ≥90%)” and 0.1 to 0.5 µM.
In the same order, the values of `C[C@@H](NC(=O)C(=O)N[C@H]1COc2ccc(C#CC3COC3)cc2N(C)C1=O)c1ccccc1` [Example 131, (S)—N^1-(5-methyl-7-(oxetan-3-ylethynyl)-4-oxo-2,3,4,5-tetrahydrobenzo[b][1,4]oxazepin-3-yl)-N^2-((R)-1-phenylethyl)oxalamide] are not below 75%, “A (A: ≥90%)” and less than 0.1 µM.
For the compound `C[C@@H](NC(=O)C(=O)N[C@H]1COc2ccc(C#CCn3ccnc3)cc2N(C)C1=O)c1ccccc1` [Example 134, N^1-((S)-7-(3-(1H-imidazol-1-yl)prop-1-yn-1-yl)-5-methyl-4-oxo-2,3,4,5-tetrahydrobenzo[b][1,4]oxazepin-3-yl)-N^2-((R)-1-phenylethyl)oxalamide], in assay [1], the inhibition at 1 µM fell in the range of 50 to 74%. In addition, in assay [2], the “Inhibition rate range of compounds” value is “A (A: ≥90%)”. Moreover, the EC50 in assay [3] is less than 0.1 µM.
